Laboratory results: ChEMBL document CHEMBL1201862, “PubChem BioAssay data set” (2004)
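Results reflect a 48-hour exposure of cells in 96-well plates to compound at five concentrations. GI50 is the concentration that inhibits growth by half.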 Active and inactive are the calls of the source. Rule as the data show it: active = GI50 up to about 1.1 µM and inactive = higher.

Experiments:
Test in all cases: DTP human tumour cell line panel, 48 h
[1] = system: MDA-MB-435
[2] = system: EKVX
[3] = system: A549
[4] = system: UACC-257
[5] = system: SK-MEL-5
[6] = system: HCT-116
[7] = system: A498
[8] = system: COLO 205
[9] = system: HOP-62
[10] = system: OVCAR-3
[11] = system: HOP-92
[12] = system: NCI-H522
[13] = system: K562
[14] = system: NCI/ADR-RES
[15] = system: OVCAR-4
[16] = system: OVCAR-5
[17] = system: DU-145
[18] = system: NCI-H226
[19] = system: HL-60
[20] = system: SF-539

Measured: GI50

CO/C(C)=N/CCC1=CCCCC1
inactive: [1] > 100 µM | [2] > 100 µM | [3] > 100 µM | [4] > 100 µM | [5] > 100 µM | [6] > 100 µM | [7] > 100 µM | [8] > 100 µM | [9] > 100 µM | [10] 89.1 µM | [11] > 100 µM | [12] > 100 µM | [13] 93.1 µM | [14] > 100 µM | [15] > 100 µM | [16] > 100 µM | [17] > 100 µM

O=C(CC(=O)N1N=C(N2CCCCC2)CC1c1ccccc1)Nc1ccc(Cl)cc1 (stereo not drawn)
inactive: [1] > 100 µM | [18] > 100 µM | [2] > 100 µM | [19] > 100 µM | [3] > 100 µM | [4] > 100 µM | [5] > 100 µM | [6] > 100 µM | [7] > 100 µM | [8] > 100 µM | [9] > 100 µM | [10] > 100 µM | [11] > 100 µM | [12] > 100 µM | [14] > 100 µM | [15] > 100 µM | [16] > 100 µM | [17] > 100 µM

COP(=O)(OC)/C(=C\C1=CN(C(c2ccccc2)(c2ccccc2)c2ccccc2)CN1)NC=O
inactive: [1] 11.1 µM | [18] 21.2 µM | [19] 18.9 µM | [3] 14.2 µM | [4] 18.9 µM | [5] 15.9 µM | [6] 15.6 µM | [7] 17.9 µM | [8] 17.3 µM | [9] 16.5 µM | [10] 16.1 µM | [11] 10.3 µM | [12] 17 µM | [13] 25.3 µM | [14] 15.8 µM | [15] 16.3 µM | [16] 17.8 µM | [17] 20.2 µM

Cc1ccc2nc(-c3ccc(C(C)(C)C)cc3)oc(=O)c2c1
inactive: [1] 14.7 µM | [2] 20 µM | [19] 16.6 µM | [3] 14.6 µM | [4] 18.9 µM | [5] 14.3 µM | [6] 17 µM | [7] 24.8 µM | [8] 18.2 µM | [9] 27.9 µM | [10] 21.4 µM | [11] 29 µM | [12] 11.5 µM | [20] 18.2 µM | [13] 17.3 µM | [14] 17.7 µM | [15] 20.7 µM | [16] 28.8 µM | [17] 26.7 µM

CO/C(=N\N=C(/c1ccccc1)C(F)(F)F)c1ccncc1
inactive: [1] 18.8 µM | [18] 17.2 µM | [19] > 100 µM | [5] 21.8 µM | [6] 28.3 µM | [7] 87.5 µM | [8] 28.7 µM | [9] 46.6 µM | [10] 37.8 µM | [11] 53.2 µM | [12] 26.6 µM | [13] 6.44 µM | [14] 20.3 µM | [15] 80.7 µM | [16] > 100 µM | [17] 44.5 µM

O=C(/C=C/c1ccc2c(c1)OCO2)Cc1nc2ccccc2[nH]c1=O
inactive: [1] 20 µM | [2] 31.9 µM | [19] 44.3 µM | [3] 23.4 µM | [4] 25.4 µM | [5] 32.6 µM | [6] 22.5 µM | [7] 20.3 µM | [8] 52.6 µM | [9] 17.5 µM | [10] 27.3 µM | [11] 20.7 µM | [12] > 100 µM | [20] 75 µM | [13] 5.3 µM | [14] 22.1 µM | [16] 22.9 µM | [17] 29.2 µM

CCOC(=O)C(C)(C)C(O)C(C)C (stereo not drawn)
inactive: [1] > 100 µM | [2] > 100 µM | [19] > 100 µM | [3] > 100 µM | [4] > 100 µM | [5] > 100 µM | [6] > 100 µM | [7] > 100 µM | [8] > 100 µM | [9] > 100 µM | [10] > 100 µM | [11] > 100 µM | [12] > 100 µM | [20] > 100 µM | [13] > 100 µM | [14] > 100 µM | [15] > 100 µM | [16] > 100 µM | [17] > 100 µM

COP(=O)(O)C(N)Cc1c[nH]c2ccccc12 (stereo not drawn)
inactive: [1] > 100 µM | [18] > 100 µM | [19] > 10 µM | [3] > 100 µM | [4] > 100 µM | [5] > 100 µM | [6] > 100 µM | [7] > 100 µM | [8] > 100 µM | [9] > 100 µM | [10] > 100 µM | [11] > 100 µM | [12] > 100 µM | [13] > 100 µM | [14] > 100 µM | [15] > 100 µM | [16] > 100 µM | [17] > 100 µM
